Test results as given in publication PMC6689897, “Drugging an undruggable pocket on KRAS” (Proceedings of the National Academy of Sciences of the …, 2019).
Values joined by “and” are separate entries in the source; they are usually repeats but may differ in a detail not shown here. Identical values can stand only once.

Experiments:
GTP-KRASG12D::CRAF = biological target: T1, GTP-KRASG12D::CRAF (Homo sapiens, UniProt P01116, G12D); assay: Alpha Screen PPI assay; format: biochemical; details: duplicate
T1 construct: KRAS (G12D) 1-169, N-terminal 6His-tag, C-terminal avi-tag was from Xtal; 6His-tag (N); purchased Xtal BioStructures, Inc
Method: (§1) 221 Measurements of various protein–protein interactions were performed using the Alpha
(§2) 222 Screen technology developed by Perkin Elmer. Recombinant RAS proteins (H-, N-, K-
(§3) 223 RAS variants; all KRAS variants are based on KRAS isoform 4B (uniprot id P01116-2);
(§4) 224 KRAS (G12D) 1-169, N-terminal 6His-tag, C-terminal avi-tag was from Xtal
(§5) 225 BioStructures, Inc., KRAS (G12C) 1-169, C-terminal avi-tag, biotinylated, mutations:
(§6) 226 C51S, C80L, C118S, NRAS(wt) 1-172, C-terminal avi-tag, biotinylated; HRAS(wt) 1-
(§7) 227 166, C-terminal avi-tag, biotinylated). Biotinylation was performed in vitro with
(§8) 228 recombinant BirA biotin-protein ligase as recommended by the manufacturer (Avidity
(§9) 229 LLC, Aurora, Colorado, USA). Interacting proteins such as SOS1 (564-1049, N-terminal
(§10) 230 GST-tag, TEV cleavage site), cRaf (1-303, N-terminal GST-tag, TEV cleavage site) and
(§11) 231 PI3KA- RBD (160-317, N-term-HIS_GST-tag) were expressed as glutathione S
(§12) 232 transferase (GST) fusions. Accordingly, the Alpha Screen beads were glutathione coated
(§13) 233 Alpha Lisa acceptor beads (Perkin Elmer AL 109 R) and Alpha Screen Streptavidin
(§14) 234 conjugated donor beads (Perkin Elmer 6760002L). Nucleotides were purchased from
(§15) 236 interaction assays were carried out in PBS, containing 0.1% bovine serum albumin,
(§16) 237 0,05% Tween-20 and 10 µM of the corresponding nucleotide. Assays were carried out in
(§17) 238 white ProxiPlate-384 Plus plates (Perkin Elmer #6008280) in a final volume of 20 µL. In
(§18) 239 brief, biotinylated RAS proteins (10 nM final concentration) and GST-SOS1, GST-PI3K
(§19) 240 or GST-CRAF (10 nM final) were mixed with glutathione acceptor beads (5 µg/mL final
(§20) 241 concentration) in buffer, containing the corresponding nucleotides (GDP or GTP for
(§21) 242 assays containing SOS1, only GTP for interaction assays containing PI3K or CRAF) and
(§22) 243 were incubated for 30 min at room temperature. After addition of streptavidin donor
(§23) 244 beads (5 µg/mL final concentration) under green light, the mixture was further incubated
(§24) 245 for 60 min in the dark at room temperature. Single oxygen induced fluorescence was
(§25) 246 measured at an Enspire multimode plate reader (Perkin Elmer) according to the
(§26) 247 manufacturer’s recommendations. […]

GTP-KRASG12D::PI3Kα = biological target: T2, GTP-KRASG12D::PI3Kα (Homo sapiens, UniProt P01116, G12D); assay: Alpha Screen PPI assay; format: biochemical; details: duplicate, read-out: IC50 GTP-KRASG12D::PI3K
T2 construct: KRAS (G12D) 1-169, N-terminal 6His-tag, C-terminal avi-tag was from Xtal; 6His-tag (N); purchased Xtal BioStructures, Inc
Method: as §1, §2, §3, §4, §5, §6, §7, §8, §9, §10, §11, §12, §13, §14, §15, §16, §17, §18, §19, §20, §21, §22, §23, §24, §25, §26

GTP-KRASwt::CRAF [1] = biological target: T3, GTP-KRASwt::CRAF (Homo sapiens, UniProt P01116); assay: Alpha Screen PPI assay; format: biochemical; details: Alpha Screen, duplicate
T3 construct: biotin (attachment tag not described)
Method: as §1, §2, §3, §4, §5, §6, §7, §8, §9, §10, §11, §12, §13, §14, §15, §16, §17, §18, §19, §20, §21, §22, §23, §24, §25, §26

GTP-KRASwt::CRAF [2] = assay: Alpha Screen PPI assay; format: biochemical, human
Method: as §1, §2, §3, §4, §5, §6, §7, §8, §9, §10, §11, §12, §13, §14, §15, §16, §17, §18, §19, §20, §21, §22, §23, §24, §25, §26

GTP-KRASwt::PI3Kα = biological target: T4, GTP-KRASwt::PI3Kα (Homo sapiens, UniProt P01116); assay: Alpha Screen PPI assay; format: biochemical; details: duplicate, read-out: IC50 GTP-KRASwt ::PI3K
T4 construct: biotin (attachment tag not described)
Method: as §1, §2, §3, §4, §5, §6, §7, §8, §9, §10, §11, §12, §13, §14, §15, §16, §17, §18, §19, §20, §21, §22, §23, §24, §25, §26

GTP-KRASwt::SOS1 = biological target: T5, GTP-KRASwt::SOS1 (Homo sapiens, UniProt P01116); assay: Alpha Screen PPI assay; format: biochemical; details: duplicate
T5 construct: biotin (attachment tag not described)
Method: as §1, §2, §3, §4, §5, §6, §7, §8, §9, §10, §11, §12, §13, §14, §15, §16, §17, §18, §19, §20, §21, §22, §23, §24, §25, §26

NCI-H358 cells = assay: pAKT quantification (Meso Scale Discovery); format: cell-based, human
Method: 217 The coordinates and structure factors of the structures have been deposited at the
218 Protein Data Bank with the accession codes PDB Code 6GJ5, 6GJ6, 6GJ7, 6GJ8.
as §1, §2, §3, §4, §5, §6, §7
228 recombinant BirA biotin-protein ligase as recommended by the manufacturer (Avidity […]
231 PI3KA- RBD (160-317, N-term-HIS_GST-tag) were expressed as glutathione S […]
as §24, §25
247 manufacturer’s recommendations. Data were analyzed using the GraphPad Prism data […]
313 added according to manufacturer’s instructions. Fluorescence intensity was determined
314 using a fluorescence reader (2030 VICTOR X5, Perkin Elmer). […]
319 MAPK pathway signaling (pERK, pAKT quantification) […]

T1 sequence (P01116 1-169 isoform P01116-2 G12D): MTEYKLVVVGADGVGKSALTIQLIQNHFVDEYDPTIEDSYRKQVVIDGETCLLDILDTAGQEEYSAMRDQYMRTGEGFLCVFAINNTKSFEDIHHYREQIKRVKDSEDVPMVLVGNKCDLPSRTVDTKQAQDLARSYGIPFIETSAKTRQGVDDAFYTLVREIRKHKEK
T4 sequence (P01116 1-188 isoform P01116-2): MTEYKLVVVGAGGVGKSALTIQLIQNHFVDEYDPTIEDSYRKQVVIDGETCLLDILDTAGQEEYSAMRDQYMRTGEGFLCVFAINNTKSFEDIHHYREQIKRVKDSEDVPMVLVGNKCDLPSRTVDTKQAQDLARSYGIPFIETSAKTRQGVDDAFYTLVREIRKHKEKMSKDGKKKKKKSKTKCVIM
T3 sequence (P01116 1-188 isoform P01116-2): as above
T5 sequence (P01116 1-188 isoform P01116-2): as above
T2 sequence (P01116 1-169 isoform P01116-2 G12D): as the sequence (P01116 1-169 isoform P01116-2 G12D) above

## Cn1cnc(Cn2ccc3ccc(CNCc4[nH]c5ccccc5c4[C@H]4NC(=O)c5ccc(O)cc54)cc32)c1 [Compound 1]
GTP-KRASG12D::CRAF
  IC50: 770 nM and 180 nM
GTP-KRASG12D::PI3Kα
  IC50: 500 nM
GTP-KRASwt::CRAF [1]
  IC50: 740 nM
GTP-KRASwt::CRAF [2]
  selectivity of inhibition biochemically, KRAS^wt versus KRAS^G12C binding to CRAF: 4 fold
GTP-KRASwt::PI3Kα
  IC50: 250 nM
GTP-KRASwt::SOS1
  IC50: 490 nM
NCI-H358 cells; high serum conditions
  pAKT levels: no reduction of pAKT levels
NCI-H358 cells; starved 24 h low serum, 2 h compound, then EGF
  pAKT levels: dose-dependently reduced
